Measured values from patent publication US20240180158A1, “COMPOUNDS HAVING SELECTIVE INACTIVATION ACTIVITY” (University of North Carolina at Wilmington, priority 2021, published 2024).
Counter-ions that a name gives are not always drawn. Like-named read-outs stand apart in the source and are kept apart here.

How the values were obtained:
S. aureus = assay: Disk diffusion assay, S. aureus; assay type: cell-based
Procedure: (§1) The following disk diffusion assays were performed with example compounds described above to assess the ability of compounds to inhibit growth of microorganism. A compound that inhibits its target enzyme may perform poorly for a number of reasons, including low solubility in water or slow rate of transport across a microbial membrane.

K pneumoniae = assay: Disk diffusion assay, K pneumoniae; assay type: cell-based
Procedure: as §1

CalASADH = molecular target: T1, CalASADH (Candida albicans, UniProt Q5ALM0); assay: Reversibility of CalASADH inactivation by exogenous thiols; assay type: biochemical; details: incubated 10 min, read-out: residual activity of CalASADH
T1 construct: His tag; made in house
T1 sequence (Q5ALM0 1-365): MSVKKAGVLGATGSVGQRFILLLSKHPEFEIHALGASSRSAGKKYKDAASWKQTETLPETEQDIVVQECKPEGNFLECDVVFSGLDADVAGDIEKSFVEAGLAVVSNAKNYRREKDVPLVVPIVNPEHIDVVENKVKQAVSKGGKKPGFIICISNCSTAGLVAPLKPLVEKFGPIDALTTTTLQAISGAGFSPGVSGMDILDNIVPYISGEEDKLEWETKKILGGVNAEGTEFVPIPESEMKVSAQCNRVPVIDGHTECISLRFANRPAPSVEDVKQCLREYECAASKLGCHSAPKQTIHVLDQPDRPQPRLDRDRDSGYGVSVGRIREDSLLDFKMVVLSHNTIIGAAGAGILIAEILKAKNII
Procedure: This loss of activity supports the hypothesis that these vinyl sulfones are covalently modifying this enzyme. To determine whether this inactivation can be reversed by the introduction of an exogenous nucleophile a large excess of either cysteine (5 mM) or glutathione (10 mM) was added to the reaction mixture after incubation, and the activity of this inactivated enzyme was then monitored. Samples of CalASADH that had been incubated either with 3 μM 4-(methylvinylsulfonyl)nitrobenzene or with 100 μM 3-(phenylsulfonyl)acrylic acid for 10 min were measured to have from 5 to 10% residual activity. At this point, after either cysteine or glutathione was added to each reaction mixture, the residual enzyme activity was monitored as described above.

[1] = molecular target: T2, Candida albicans ASADH (CalASADH), aspartate semialdehyde dehydrogenase, his-tagged (Candida albicans, UniProt Q5ALM0); assay: Inhibition/time-dependent inactivation of Candida albicans ASADH by vinyl sulfones (purified his-tagged enzyme; NADPH production at 340 nm); assay type: biochemical; details: FIG. 5; pH 8.6, 25° C., 0.3 mM ASA, 1.5 mM NADP, 20 mM phosphate; irreversible covalent inactivators
T2 construct: His tag; made in house
T2 sequence (Q5ALM0 1-365): T1 sequence (Q5ALM0 1-365)
Procedure: FIG. 5 is a table showing the affinities and the rates of inactivation of example vinyl sulfones as inactivators of a fungal ASADH, in accordance with some embodiments of the present technology;
Their initial inhibition potencies (Ki values) were determined by varying the concentration of each vinyl sulfone in the presence of fixed, non-saturating substrate levels.
Aryl vinyl sulfones can be reasonably potent inhibitors of CalASADH, each inhibitor was then tested to determine if it would function as an enzyme inactivator. […] In most cases the residual enzyme activity, measured following a subsequent 20-fold dilution into an assay mixture, decreased to less than 5% of the control rate after incubation with low micromolar levels of these inactivators for 10 min or less. To determine the rate of inactivation the concentration of each vinyl sulfone in this pre-incubation mixture was then varied, centered around their initial measured Ki values. The rate of activity loss observed in each incubation reaction (kobs) was plotted against the inhibitor concentration to determine the inactivation rate (kinact) for that compound and the concentration that produces half-maximal inactivation (Ki). […] The proposed product of the reaction of the active site nucleophile (Cys-156) with this inactivator predicts key interactions of the p-nitro group with Arg-18 and Ser-187, and the protonation of the covalent intermediate by His-256. […] Reaction of this inactivator with the active site nucleophile (Cys-156) predicts keys interactions between its carboxyl group and several backbone amide nitrogens that would shift this adduct further from the active site base (His-256). FIG. 3 illustrates inactivation of Candida albicans ASADH by 4-(methylvinylsulfonyl)nitrobenzene. Plot of the natural log of the ratio of enzyme activity at each time point over the initial enzyme activity, showing the loss of activity as a functional of incubation time for different concentrations of inactivator: 0 μM, 0.75 μM, 1.5 μM, 3 μM, 6 μM. The resulting observed rates at each concentration (kobs) were plotted against the inactivator concentration and a non-linear fit to these replotted data yielded the rate of inactivation (kinact) and the inhibition constant (Ki).
The ASADH from Candida albicans (CalASADH) was purified using an ÄKTA chromatography system as previously described (Arachea et al., 2010), with only minor modifications. A nickel-immobilized metal affinity (IMAC) column was used for the purification of the his-tagged enzyme, with an initial buffer wash containing 20 mM imidazole to remove loosely bound proteins before elution with a 20 to 400 mM imidazole gradient. The enzyme activity was assayed at 25° C. by following the production of NADPH at 340 nm in a SpectraMax 190 plate reader (Molecular Devices). Enzyme inhibitors were evaluated by the same assay in the presence of 120 mM CHES buffer, pH 8.6, with 120 mM KCl, 0.3 mM ASA, 1.5 mM NADP, 20 mM phosphate and varying concentrations of each potential inhibitory compound to be tested. The data were fitted to a competitive inhibitor model which corrects for the levels of substrates present relative to their individual Km values.
To examine the possibility of enzyme inactivation each vinyl sulfone compound was incubated in a defined concentration range with 30 μg/ml of CalASADH, with the inhibitor concentrations grouped around their determined Ki values. Aliquots (10 μl) were removed from the enzyme-inhibitor reaction mixture at various times ranging from 30 secs to 60 min, with most compounds examined from 1 to 10 min at 2 min intervals. Each aliquot was then added to a 190 μl of the same assay mixture as described above for the inhibition studies to measure the residual enzyme activity. […]

[2] = molecular target: Vibrio cholera ASADH (V. cholera ASADH), aspartate semialdehyde dehydrogenase; assay: Inactivation of the bacterial ASADH ortholog from Vibrio cholera by vinyl sulfones (comparison with the fungal enzyme); assay type: biochemical; details: FIG. 6, irreversible covalent inactivators
Source text: FIG. 6 is a table showing a comparison of the differences in affinities and rates of inactivation of example vinyl sulfones as inactivators of either a bacterial or a fungal ASADH, in accordance with some embodiments of the present technology; and
Enhanced reactivity upon binding to an enzyme target is a desirable property if these vinyl sulfones are to serve as effective antifungal agents. However, increased selectivity in target binding is equally important. […] The ASADH from the […] bacterium Vibrio cholera has >90% overall sequence homology to the C. albicans enzyme, with the exception of a helical domain insert (Arachea et al., 2010), and all of the essential active site functional amino acids are fully conserved between these enzyme forms. Five different vinyl sulfones that span the fungal ASADH potency spectrum were selected and examined as potential inactivators of the bacterial ASADH. […] However, importantly, several of these compounds already show some level of discrimination between the fungal and bacterial ASADHs (Table 3).
Ideally, any antifungal agent should have high specificity, interacting only with its intended target. […] Each of the vinyl sulfones that were examined as inactivators of a fungal ASADH were also found to inactivate the bacterial ASADH ortholog, but several of them do so with lower efficiencies. In particular, the best fungal ASADH inactivators with a polar functional group at the 4-position of the benzyl ring are from 7 to 9-fold less efficient when examined as bacterial ASADH inactivators (See e.g. Table 3). By contrast, the inactivators with this polar group in the 2- or 3-position show no significant differences in reactivity between the fungal and bacterial forms of ASADH. The respective active sites of these two ASADH orthologs are virtually identical. However, a conserved arginine (Arg-18) found in fungal ASADH that is proposed to interact with the 4-nitro or the 4-carboxy groups in these inactivators (FIG. 1) is replaced with either a valine or a threonine in the bacterial ASADH family.
The ASADH from Candida albicans (CalASADH) was purified using an ÄKTA chromatography system as previously described (Arachea et al., 2010), with only minor modifications. […] The enzyme activity was assayed at 25° C. by following the production of NADPH at 340 nm in a SpectraMax 190 plate reader (Molecular Devices). Enzyme inhibitors were evaluated by the same assay in the presence of 120 mM CHES buffer, pH 8.6, with 120 mM KCl, 0.3 mM ASA, 1.5 mM NADP, 20 mM phosphate and varying concentrations of each potential inhibitory compound to be tested. […]

C. auris ASADH = C. auris ASADH (Candidozyma auris, UniProt A0A2H0ZN20); assay: C. auris ASADH irreversible inhibition; assay type: biochemical
Procedure: These amino acid analogs may be synthesized in accordance with various techniques and schemes provided herein. Two are vinyl sulfones and one is an acrylamide. Accordingly, the core functional group of compounds described herein can be at least one of a vinyl sulfone and/or an acrylamide. The vinyl sulfones were tested against C. auris ASADH as irreversible inhibitors.

Sequence of C. auris ASADH (A0A2H0ZN20 entry or part of it): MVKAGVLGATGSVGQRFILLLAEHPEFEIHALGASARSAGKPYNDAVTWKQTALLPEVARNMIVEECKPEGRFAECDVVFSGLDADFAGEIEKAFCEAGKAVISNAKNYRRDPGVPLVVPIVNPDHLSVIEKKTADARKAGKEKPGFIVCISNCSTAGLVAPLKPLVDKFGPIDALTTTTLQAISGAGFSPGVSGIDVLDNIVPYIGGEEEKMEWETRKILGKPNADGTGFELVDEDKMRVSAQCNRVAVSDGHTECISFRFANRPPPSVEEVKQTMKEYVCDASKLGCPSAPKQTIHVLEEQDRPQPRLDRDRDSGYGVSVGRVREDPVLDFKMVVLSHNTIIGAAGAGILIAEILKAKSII

Ki [1] [µM] | SMILES | other results
2.64 ± 0.22 | CS(=O)(=O)/C=C/c1ccccn1 [Compound 3, 2-(methylsulfonylvinyl)pyridine] | 
2.16 ± 0.24 | O=S(=O)(/C=C/c1ccncc1)c1ccccc1 [Compound 5, 4-(phenylsulfonylvinyl)pyridine] | 
4.26 ± 0.83 | CS(=O)(=O)/C=C/c1ccccc1 [Compound 6, Methylsulfonylvinylbenzene] | 
21.7 ± 8 | O=S(=O)(/C=C/c1ccccc1)C(F)(F)F [Compound 7, Trifluoromethylsulfonylvinylbenzene] | 
8.49 ± 0.94 | O=S(=O)(/C=C/c1ccccn1)c1ccccc1 [Compound 8, 2-(Phenylsulfonylvinyl)pyridine] | 
42.2 ± 3 | O=S(=O)(/C=C/c1cccnc1)c1ccccc1 [Compound 11, 3-(Phenylsulfonylvinyl)pyridine] | 
67.1 ± 15.8 | O=C(O)/C=C/S(=O)(=O)c1ccccc1 [Compound 15, 3-(phenylsulfonyl)acrylic acid] | 

The remaining lines, values behind:

SMILES | Ki [1] [µM] | other results
CS(=O)(=O)/C=C/c1cc(O)ccc1O [2-MSV-dihydroxbenzene, 2-(S-methylsulfonylvinyl)1,4-dihydroxybenzene] |  | disk diffusion, S. aureus (S. aureus; aromatic compounds): medium; disk diffusion, K pneumoniae (K pneumoniae; aromatic compounds): weak
O=C(O)/C=C/S(=O)(=O)c1ccccc1 [3-(phenylsulfonyl)acrylic acid] |  | remaining activity at 100 µM (CalASADH; 100 μM): 5 to 10%
CS(=O)(=O)/C=C/c1ccc([N+](=O)[O-])cc1 [4-(methylvinylsulfonyl)nitrobenzene, 4-(methylsulfonylvinyl)nitrobenzene] |  | remaining activity at 3 µM (CalASADH; 3 μM): 5 to 10%
CS(=O)(=O)/C=C/c1ccc(C(=O)O)cc1 [Compound 1, 4-(methylsulfonylvinyl)benzoic acid] | 0.78 ± 0.1 | Ki [2]: 4.45 ± 0.25 µM
CS(=O)(=O)/C=C/c1ccc([N+](=O)[O-])cc1 [Compound 2, 4-(methylsulfonylvinyl)nitrobenzene] | 1.02 ± 0.28 | Ki [2]: 6.29 ± 0.59 µM
CS(=O)(=O)/C=C/c1ccc(O)c(O)c1 [Compound 4, 4-(methylsulfonylvinyl)-1,2-benzenediol] | 3.52 ± 0.42 | 
CS(=O)(=O)/C=C/c1ccncc1 [Compound 9, 4-(methylsulfonylvinyl)pyridine] | 5.69 ± 0.78 | 
CS(=O)(=O)/C=C/c1cccnc1 [Compound 10, 3-(methylsulfonylvinyl)pyridine] | 25.1 ± 6.8 | 
CS(=O)(=O)/C=C/c1cccc([N+](=O)[O-])c1 [Compound 12, 3-(methylsulfonylvinyl)nitrobenzene] | 19.6 ± 1.4 | Ki [2]: 10.3 ± 2.3 µM
CS(=O)(=O)/C=C/c1cccc(C(=O)O)c1 [Compound 13, 3-(methylsulfonylvinyl)benzoic acid] | 36.9 ± 6.2 | 
CS(=O)(=O)/C=C/c1ccccc1[N+](=O)[O-] [Compound 14, 2-(methylsulfonylvinyl)nitrobenzene] | 56.7 ± 2.7 | Ki [2]: 2.57 ± 0.23 µM
CS(=O)(=O)/C=C/C(N)=O [MeSAm, 3-S-Methylsulfonylacrylamide] |  | disk diffusion, S. aureus (S. aureus; vinyl sulfone carboxamides): strong; disk diffusion, K pneumoniae (K pneumoniae; vinyl sulfone carboxamides): strong
NC(=O)/C=C/S(=O)(=O)c1ccccc1 [PhSAm, 3-S-Phenylsulfonylacrylamide] |  | disk diffusion, S. aureus (S. aureus; vinyl sulfone carboxamides): strong; disk diffusion, K pneumoniae (K pneumoniae; vinyl sulfone carboxamides): strong
NC(C/C=C/S(=O)(=O)Cc1ccccc1)C(=O)O (centres unmarked) [S-benzylsulfonylvinylalanine, 3-(benzylsulfonylvinyl)-alanine hydrochloride] |  | Ki (C. auris ASADH): 0.3 µM
CS(=O)(=O)C=CC[C@H](N)C(=O)O [S-methylsulfonylvinylacrylamide, 3-(S-methylsulfonylvinyl)-alanine hydrochloride] |  | Ki (C. auris ASADH; irreversible inhibitors, read-out: inhibitory constant): 0.1 µM
